Results published in PubChem BioAssay (NCI).
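Cells were grown in 96-well plates and exposed to each compound for 48 hours at five concentrations; endpoints were interpolated linearly between bracketing concentrations, or set to the highest concentration if not reached. TGI: concentration producing complete growth inhibition.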

Columns and labels:
Experiment in all cases: NCI-60 cell line screen, 48 h
HOP-92 NSCLC = test system: HOP-92 NSCLC
MALME-3M melanoma = test system: MALME-3M melanoma
HOP-62 NSCLC = test system: HOP-62 NSCLC
OVCAR-8 ovarian = test system: OVCAR-8 ovarian
HCT-15 colon = test system: HCT-15 colon
LOX IMVI melanoma = test system: LOX IMVI melanoma
COLO 205 colon = test system: COLO 205 colon
OVCAR-4 ovarian = test system: OVCAR-4 ovarian
UO-31 renal = test system: UO-31 renal
NCI-H522 lung = test system: NCI-H522 lung
T-47D breast = test system: T-47D breast
UACC-257 melanoma = test system: UACC-257 melanoma
CCRF-CEM leukemia = test system: CCRF-CEM leukemia
TK-10 renal = test system: TK-10 renal
NCI-H460 lung = test system: NCI-H460 lung
ACHN renal = test system: ACHN renal
SK-OV-3 ovarian = test system: SK-OV-3 ovarian
M14 melanoma = test system: M14 melanoma
SK-MEL-28 melanoma = test system: SK-MEL-28 melanoma
CAKI-1 renal = test system: CAKI-1 renal
UACC-62 melanoma = test system: UACC-62 melanoma
SK-MEL-5 melanoma = test system: SK-MEL-5 melanoma
OVCAR-3 ovarian = test system: OVCAR-3 ovarian
HCC-2998 colon = test system: HCC-2998 colon
SF-268 CNS = test system: SF-268 CNS
A549 NSCLC = test system: A549 NSCLC
786-0 renal = test system: 786-0 renal
OVCAR-5 ovarian = test system: OVCAR-5 ovarian
HT29 colon = test system: HT29 colon
MOLT-4 leukemia = test system: MOLT-4 leukemia
RPMI-8226 leukemia = test system: RPMI-8226 leukemia
HS 578T breast = test system: HS 578T breast
IGROV1 ovarian = test system: IGROV1 ovarian
BT-549 breast = test system: BT-549 breast
NCI/ADR-RES ovarian = test system: NCI/ADR-RES ovarian
SNB-19 CNS = test system: SNB-19 CNS
SR leukemia = test system: SR leukemia
MDA-MB-435 = test system: MDA-MB-435
MCF7 breast = test system: MCF7 breast
NCI-H226 lung = test system: NCI-H226 lung
U251 CNS = test system: U251 CNS
MDA-MB-231 breast = test system: MDA-MB-231 breast
EKVX NSCLC = test system: EKVX NSCLC
SW-620 colon = test system: SW-620 colon
SN12C renal = test system: SN12C renal
NCI-H23 lung = test system: NCI-H23 lung
RXF 393 renal = test system: RXF 393 renal
MDA-N = test system: MDA-N
SNB-75 CNS = test system: SNB-75 CNS
HL-60(TB) leukemia = test system: HL-60(TB) leukemia
SK-MEL-2 melanoma = test system: SK-MEL-2 melanoma
SF-295 CNS = test system: SF-295 CNS
DU-145 prostate = test system: DU-145 prostate
HCT-116 colon = test system: HCT-116 colon
KM12 colon = test system: KM12 colon
K-562 leukemia = test system: K-562 leukemia
SF-539 CNS = test system: SF-539 CNS
A498 renal = test system: A498 renal
PC-3 prostate = test system: PC-3 prostate

For `O=C1c2c(Br)sc(Br)c2[C@@H](NC(=O)C(F)(F)F)C1Br` (some centres undefined), which TGI (HOP-92 NSCLC) is on record?
The TGI was 6.69 µM.

And the TGI (MALME-3M melanoma)?
Its TGI is 4.88 µM.

What about the TGI (HOP-62 NSCLC) of the same molecule?
Its TGI is 28.2 µM.

And the TGI (OVCAR-8 ovarian)?
The TGI was 7.73 µM.

What about the TGI (HCT-15 colon) of the same molecule?
The TGI was 4.61 µM.

What about the TGI (LOX IMVI melanoma) of the same molecule?
Its TGI is 3.24 µM.

What about the TGI (COLO 205 colon) of the same molecule?
Its TGI is 4.02 µM.

And the TGI (OVCAR-4 ovarian)?
Its TGI is 5.33 µM.

What about the TGI (UO-31 renal) of the same molecule?
The TGI was 12.5 µM.

What about the TGI (NCI-H522 lung) of the same molecule?
The TGI was 5.07 µM.

And the TGI (T-47D breast)?
The TGI was 14.7 µM.

And the TGI (UACC-257 melanoma)?
The TGI was 3.97 µM.

And the TGI (CCRF-CEM leukemia)?
The TGI was 5.64 µM.

What about the TGI (TK-10 renal) of the same molecule?
Its TGI is 30.5 µM.

And the TGI (NCI-H460 lung)?
The TGI was 31 µM.

What about the TGI (ACHN renal) of the same molecule?
The TGI was 6.1 µM.

And the TGI (SK-OV-3 ovarian)?
Its TGI is 32.8 µM.

And the TGI (M14 melanoma)?
Its TGI is 6.23 µM.

What about the TGI (SK-MEL-28 melanoma) of the same molecule?
Its TGI is 8.51 µM.

And the TGI (CAKI-1 renal)?
The TGI was 8.82 µM.

And the TGI (UACC-62 melanoma)?
Its TGI is 14.6 µM.

What about the TGI (SK-MEL-5 melanoma) of the same molecule?
Its TGI is 7.88 µM.

What about the TGI (OVCAR-3 ovarian) of the same molecule?
The TGI was 9.99 µM.

What about the TGI (HCC-2998 colon) of the same molecule?
Its TGI is 7.8 µM.

And the TGI (SF-268 CNS)?
The TGI was 15.2 µM.

What about the TGI (A549 NSCLC) of the same molecule?
Its TGI is 32.7 µM.

What about the TGI (786-0 renal) of the same molecule?
The TGI was 5.13 µM.

And the TGI (OVCAR-5 ovarian)?
Its TGI is 24.4 µM.

And the TGI (HT29 colon)?
The TGI was 5.77 µM.

What about the TGI (MOLT-4 leukemia) of the same molecule?
Its TGI is 5.32 µM.

And the TGI (RPMI-8226 leukemia)?
The TGI was 5.92 µM.

And the TGI (HS 578T breast)?
Its TGI is over 63.9 µM.

And the TGI (IGROV1 ovarian)?
The TGI was 10.5 µM.

And the TGI (BT-549 breast)?
The TGI was 10.1 µM.

What about the TGI (NCI/ADR-RES ovarian) of the same molecule?
Its TGI is 11 µM.

What about the TGI (SNB-19 CNS) of the same molecule?
Its TGI is 25.9 µM.

And the TGI (SR leukemia)?
The TGI was 5.3 µM.

And the TGI (MDA-MB-435)?
The TGI was 5.27 µM.

And the TGI (MCF7 breast)?
Its TGI is 15.6 µM.

And the TGI (NCI-H226 lung)?
The TGI was 15.1 µM.

And the TGI (U251 CNS)?
The TGI was 9.08 µM.

What about the TGI (MDA-MB-231 breast) of the same molecule?
The TGI was 6.06 µM.

What about the TGI (EKVX NSCLC) of the same molecule?
Its TGI is 11.6 µM.

And the TGI (SW-620 colon)?
Its TGI is over 21.9 µM.

And the TGI (SN12C renal)?
Its TGI is 8.33 µM.

What about the TGI (NCI-H23 lung) of the same molecule?
The TGI was 7.14 µM.

What about the TGI (RXF 393 renal) of the same molecule?
Its TGI is 5.22 µM.

What about the TGI (MDA-N) of the same molecule?
The TGI was 9.14 µM.

And the TGI (SNB-75 CNS)?
The TGI was 16.1 µM.

What about the TGI (HL-60(TB) leukemia) of the same molecule?
The TGI was 1.59 µM.

What about the TGI (SK-MEL-2 melanoma) of the same molecule?
Its TGI is 27.5 µM.

And the TGI (SF-295 CNS)?
Its TGI is 31.6 µM.

And the TGI (DU-145 prostate)?
Its TGI is 18.3 µM.

What about the TGI (HCT-116 colon) of the same molecule?
Its TGI is 2.76 µM.

And the TGI (KM12 colon)?
Its TGI is 17.7 µM.

What about the TGI (K-562 leukemia) of the same molecule?
Its TGI is 4.17 µM.

And the TGI (SF-539 CNS)?
Its TGI is 6.82 µM.

What about the TGI (A498 renal) of the same molecule?
Its TGI is 28.7 µM.

What about the TGI (PC-3 prostate) of the same molecule?
The TGI was 15.1 µM.
